US6465506B2, “Instillation techniques for ophthalmic agents to enhance treatment effect” (Ophthalmic Research Associates, Inc., priority 2001, dated 2002)

Experiment: Pupil diameter after instillation of pilocarpine 1% before vs after TBUT (digital imaging system)
Format: in vivo
Conditions: 30 μL; for mean decrease from the baseline in pupil diameter: at 30 minutes, 6 normal eyes
Method: The following study examines the efficacy of pilocarpine, 1% in constricting the pupil and tropicamide, 1% in dilating the pupil when instilled before and after TBUT. Baseline pupil diameters were determined in 12 normal eyes using a digital imaging system (and controlling illumination). Six (6) of the eyes were dosed with 30 μL of pilocarpine and 6 with 30 μL of tropicamide, all before TBUT. Pupil diameter was measured every minute for 30 minutes after instillation. One day later, the same procedures were repeated in the same eyes, except that the subjects were instructed to stare without blinking (≧6 seconds) before the ophthalmic agents were instilled.

CC[C@@H]1C(=O)OC[C@@H]1Cc1cncn1C [Pilocarpine, pilocarpine]
mean decrease from the baseline in pupil diameter (instillation after TBUT): 2.44 units | mean decrease from the baseline in pupil diameter (instillation before TBUT): 1.12 units | greater pupil constriction with instillation after TBUT vs before TBUT (over the 30 minute period): 29.44%
